Experimental data published in patent US20150297718A1, “ION[…] OF CATIONIC PRODRUGS FOR TOPICAL TREATMENT OF MUSCU[…] SKIN DISEASES” (priority 2014, published 2015).
Where a name gives a salt, the structure may show the parent alone.

How the values were obtained:
[1] = In-vitro side-by-side diffusion cell study, iontophoresis across human epidermis skin; format: in vitro ADME
Text: The efficiency in anode iontophoresis delivery of KCE and that in cathode iontophoresis delivery of ketoprofen were compared with an in-vitro side-by-side diffusion cell study. […] The human cadaver epidermis skin was sandwiched between the two half cells with stratum corneum face the donor chamber. For anode iontophoresis of KCE, KCE chloride salt solution (26.6 μmol/ml) was placed in the donor cell. For cathode iontophoresis of ketoprofen (Kt), […] solution (26.6 μmol/ml) was placed in the donor cell. Phosphate buffer solution (0.15 M at pH 7.4) was placed in the receiver chamber. Constant current 0.2 mA was applied to the diffusion cell. The amount of drug penetrated through the skin was collected in the receive chamber and analyzed with a HPLC. The anode iontophoresis of the cationic prodrug KCE delivered 4 times more drug across the skin than that delivered by the cathode iontophoresis of ketoprofen (see FIG. 4A) from the in-vitro study.
Anode iontophoresis of the cationic ketoprofen prodrug KCE (26.6 μmol/ml) with the presence of phenylephrine (PE) (4.9 μmol/ml) in solution was evaluated with an in-vitro diffusion cell study across a human epidermis skin.

[2] = Passive penetration across human epidermis skin in side-by-side diffusion cells; settings: no electric current, 6 hours
Text: The efficiency in anode iontophoresis delivery of KCE and that in cathode iontophoresis delivery of ketoprofen were compared with an in-vitro side-by-side diffusion cell study. […] The human cadaver epidermis skin was sandwiched between the two half cells with stratum corneum face the donor chamber. […] Phosphate buffer solution (0.15 M at pH 7.4) was placed in the receiver chamber. […]

[3] = In vivo rat study of iontophoresis delivery on dorsal back skin: tissue and plasma drug concentrations; settings: for Drug concentration in the skin: delivered drug (prodrug or ketoprofen); for Concentration of ketoprofen converted from the prodrug in the skin: number in bracket
Procedure: (§1) The anode iontophoresis of ketoprofen cationic prodrugs KCE, KME and cathode iontophoresis of ketoprofen were compared with an in vivo rat study for evaluation of drug penetration into deep tissues. […] A prodrug solution was loaded in the cell. A constant current of 0.4 mA/cm^2 for iontophoresis was applied for 6 hours. At the end of the iontophoresis delivery, the rats were euthanized. The skin of the application site (under the glass cell) was washed with water, tape stripped once to remove residue drug on skin, and then dissected with a biopsy punch for the tissue layers: epidermis and dermis layer (depth 0-3 mm), subcutaneous tissue (fat pad) (3-4 mm), shallow muscle layer (4-6 mm), and deep muscle (6-10 mm). The tissues from the contralateral site were dissected with the same method. In addition, the plasma blood samples were obtained right before the experiment (time 0) and each hour during the experiment. The drug concentrations in the tissue and plasma samples were analyzed with a HPLC.
as §1, with “cationic prodrugs and cathode” for “cationic prodrugs KCE, KME and cathode”, “ketoprofen were also compared with” for “ketoprofen were compared with”, “rat study at 0.4 mA/cm^2 for a shorter duration of 2 hours for evaluation” for “rat study for evaluation”, “applied for 2 hours. At” for “applied for 6 hours. At”
as §1, with “cationic prodrugs and cathode” for “cationic prodrugs KCE, KME and cathode”, “ketoprofen were also compared with” for “ketoprofen were compared with”, “rat study at 0.057 mA/cm^2 for a duration of 6 hours for evaluation” for “rat study for evaluation”, “current of 0.057 mA/cm^2 for” for “current of 0.4 mA/cm^2 for”, “with a HPLC” for “with a HPLC.”
KPE is a prodrug of ketoprofen but with two methyl groups on the nitrogen atom, instead of three methyl groups on the nitrogen atom like KCE and KME. KPE can be presented as a hydrochloride salt. […] Anode iontophoresis delivery of KPE in this aqueous solution at 0.4 mA/cm^2 for a shorter duration of 2 hour was also conducted with the in vivo rat study.

melanoma cell (A375) = assay: In vitro cell viability assay on melanoma cell growth; format: cell-based; settings: A375 cells, read-out: 50% inhibition concentration (IC50) on melanoma cell (A375) growth
Text: The drug concentrations in the skin after the iontophoresis delivery of those prodrugs or their parent drug ketoprofen from different iontophoresis conditions are summarized in Table 2. The high drug concentration in the skin can be used for treatment of skin diseases including skin cancers such as melanoma. […] The ketoprofen concentrations in the skin from the iontophoresis delivery was not higher than its IC50 against the melanoma cell growth, but the KCE and KME concentrations in the skin from the anode iontophoresis delivery were higher than their IC50 against the melanoma cell growth. Thus, the anode iontophoresis of the prodrugs can provide high drug accumulation in the skin, and such high drug accumulation in the skin can be used for skin disease treatment.

[4] = Iontophoresis delivery into hairless rat knee joint: tissue and plasma drug concentrations; format: in vivo; settings: 0.4 mA/cm^2 for 20 min; 0.5-hour and 2-hour time points
Procedure: Hairless rats were anaesthetized with isoflurane. A rubber disk shape applicator with a sponge that can hold 0.5 ml of the drug solution was used and a button Ag/AgCl electrode was used as current driving electrode. The delivery area is about 1.2 cm^2. After drug solution was loaded into the sponge, the applicator was placed on the knee cap skin and applied an electric current at 0.4 mA/cm^2 for 20 min. A return electrode was attached to the upper tail of the rat. After that, the skin was cleaned thoroughly with wet Kim wipes. The tissues (skin, muscle and joint) at the application site knee and also the contralateral site knee were collected at 30 min, 2 hr, 4 hr or 6 hr from the start of iontophoresis delivery. Three animals were used for each time point. Blood samples were also collected at appropriate time points. The tissue and blood samples were stored at −80° C. until further processing.

[5] = tested on: knee arthritis pain model (monosodium iodoacetate); assay: MIA knee osteoarthritis rat model treated with iontophoresis; format: in vivo; settings: 0.4 mA/cm^2 for 20 min on days 1, 2, 3 after MIA; versus iontophoresis of NaCl
Procedure: A knee arthritis pain model was established by injection of 50 μl of 60 mg/ml monosodium iodoacetate (MIA) into the left hind knee joint of 12 hairless rats, and they were divided into three groups. The knee diameters of both hind knees were measured. The difference in knee diameters between the left knee and right knee was used as the indicator of the swelling (or inflammation) of the left knee. In addition, the weight bearing of each hind limb was also measured with a Linton incapacitance tester. The percentage of the weight bearing by the left leg was used as an indicator of the pain level in the knee. At 1 day, 2 days, 3 days after the injection of MIA, the left knee of the rats in group 1 was treated with iontophoresis of NaCl to the left hind knee at 0.4 mA/cm^2 for 20 min, group 2 treated with iontophoresis of Kt to the left hind knee at 0.4 mA/cm^2 for 20 min, and group 3 treated with iontophoresis of KCE to the left hind knee at 0.4 mA/cm^2 for 20 min. The knee diameter and weight bearing were measured at day 0 before the MIA injection, and also at day 1, 2, and 3 after the MIA injection but before the iontophoresis treatment. They were also measured at day 4, 6, and 10 after the MIA injection.

[6] = Bioconversion of ketoprofen prodrugs in fresh rat plasma
[7] = Bioconversion of ketoprofen prodrugs in fresh human plasma
[8] = iontophoresis 0.057 mA/cm^2 for 6 hrs
[9] = iontophoresis 0.4 mA/cm^2 for 2 hrs
[10] = iontophoresis 0.4 mA/cm^2 for 6 hrs

CC(C(=O)OCC[N+](C)(C)C)c1cccc(C(=O)c2ccccc2)c1 (stereo not shown) [KCE, Ketoprofen choline ester chloride salt]
Drug delivered across the skin relative to cathode iontophoresis of ketoprofen ([1]; 0.2 mA constant current, 26.6 μmol/ml donor, anode iontophoresis): 4 times | Amount penetrated across the skin by anode iontophoresis, KCE alone versus KCE with phenylephrine ([1]; KCE 26.6 μmol/ml, PE 4.9 μmol/ml, 0.2 mA): slightly higher than that with the PE in the solution | Passive penetration across human epidermis skin [2]: Almost no KCE chloride was penetrated across the human skin in 6 hours | Plasma and contralateral tissue drug concentration ([3]; 0.057 mA/cm^2 for 6 hours): initial lower plasma concentration, but reached a plasma concentration similar to that from iontophoresis of Kt at 6 hours | Tissue drug concentrations / direct penetration at the application site ([3]; 0.057 mA/cm^2 for 6 hours): direct penetration into deeper tissues that is up into the shallow muscles | Plasma drug concentration ([3]; 0.4 mA/cm^2 for 2 hours): lower than that from iontophoresis of ketoprofen | Tissue drug concentrations / direct penetration at the application site ([3]; 0.4 mA/cm^2 for 2 hours): direct penetration into deeper tissues up into the deep muscles | Drug in tissues at the contralateral site ([3]; 0.4 mA/cm^2 for 6 hours): No prodrug was detected in the contralateral tissues | Plasma drug concentration ([3]; 0.4 mA/cm^2 for 6 hours): much lower than that from the iontophoresis of Kt | Tissue drug concentrations / direct penetration at the application site ([3]; 0.4 mA/cm^2 for 6 hours): much higher concentration in the drug application site than the Kt concentration in the contralateral site | Drug concentration in the skin [3, 8]: 887 μmol per kilogram of skin | Concentration of ketoprofen converted from the prodrug in the skin [3, 8]: 905 μmol per kilogram of skin | Drug concentration in the skin [3, 9]: 6719 μmol per kilogram of skin | Concentration of ketoprofen converted from the prodrug in the skin [3, 9]: 2996 μmol per kilogram of skin | Drug concentration in the skin [3, 10]: 25869 μmol per kilogram of skin | Concentration of ketoprofen converted from the prodrug in the skin [3, 10]: 13527 μmol per kilogram of skin | IC50 (melanoma cell (A375)): 2650 µM | Drug concentrations in the knee joint and surrounding muscle tissues [4]: higher drug concentrations in the knee joint and also surrounding muscle tissues than those from the cathode iontophoresis of Kt | Knee swelling (knee diameter difference left vs right) [5]: significant reduction of the knee swelling | Weight bearing of the left leg (pain indicator) [5]: significant improvement in the weight bearing of the left leg | Bioconversion (half life) in rat plasma [6]: 8.6 min | Bioconversion (half life) in human plasma [7]: <2 min
